Reference: patent US5496947A, “Quinolone carboxylic acid derivatives” (Dong Wha Pharmaceutical Industrial Co., Ltd., priority 1994, dated 1996)
Where two headings read alike, the source gives them in different places.

Key:
[1] = test system: Streptococcus faecalis ATCC 19433; assay: MIC, 2-fold dilution method in micro-well plate, S. faecalis ATCC 19433; format: cell-based; conditions: Enterococcus faecalis; S. faecalis ATCC19433, 37° C.; read-out: Minimum Inhibitory Concentration
In short: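 Bacteria grown overnight in brain-heart infusion broth at 37 °C, then mixed with two-fold serial aqueous dilutions of hydrochloride salts in micro-wells at roughly (10^5-10^6)/2 cfu/ml. Lowest inhibitory concentration recorded after 37 °C culture.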

[2] = test system: Streptococcus pneumoniae ATCC 6303; assay: MIC, 2-fold dilution method in micro-well plate, S. pneumoniae; format: cell-based; conditions: S. pneuinoniae ATCC6303, 37° C., read-out: Minimum Inhibitory Concentration
In short: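 Inoculum of about (10^5–10^6)/2 cfu/ml came from an overnight brain-heart infusion culture at 37° C. Compounds, tested as hydrochloride salts dissolved in sterile water, were two-fold serially diluted in micro-well plates. The lowest concentration inhibiting growth after 37° C incubation was taken as MIC.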

[3] = test system: Streptococcus faecalis ATCC 29212; assay: MIC, 2-fold dilution method in micro-well plate, S. faecalis ATCC 29212; format: cell-based; conditions: Enterococcus faecalis; S. faecalis ATCC29212, 37° C.; read-out: Minimum Inhibitory Concentration
In short: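 MIC was read after incubation at 37° C in micro-well plates. Bacteria were grown overnight in BHI broth and added to give about (10^5-10^6)/2 cfu/ml per well. The hydrochloride-salt compounds were serially diluted two-fold in sterile water.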

[4] = test system: Shigella sonnei ATCC 25931; assay: MIC, 2-fold dilution method in micro-well plate, S. sonnei; format: cell-based; conditions: S. sonnei ATCC25931, 37° C., read-out: Minimum Inhibitory Concentration
In short: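 Compounds, converted to hydrochloride salts, were serially diluted two-fold in micro-wells and mixed with an equal volume of bacteria grown overnight in BHI broth at 37° C (final about (10^5-10^6)/2 cfu/ml). Following culture at 37° C, the minimum inhibitory concentration was recorded.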

[5] = test system: Proteus vulgaris ATCC 13315; assay: MIC, 2-fold dilution method in micro-well plate, P. vulgaris; format: cell-based
In short: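 MIC recorded after 37 °C cultivation of compound hydrochloride salts in serial 2-fold aqueous dilutions, mixed equally with overnight BHI culture (about 10^5 cfu/ml inoculum). Micro-well plate format.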

Enterobacter cloacae = assay: MIC, 2-fold dilution method in micro-well plate, E. cloacae; format: cell-based; conditions: read-out: Minimum Inhibitory Concentration
[6] = Pharmacokinetic properties in ICR mouse, oral and subcutaneous, Bio-Assay (Agar well method); format: in vivo; conditions: 40 mg/kg, average of four tests; for AUC / Cmax / Tmax / bioavailability / half-life: blood; for dose excreted: urine, read-out: Urine Recovery
Experimental: The pharmacokinetic properties are tested by orally administrating and subcutaneously injecting a test compound and a substance for control to a ICR Mouse with 22 g±10% weight, drawing blood after 10, 20, 30, 45, 60, 90, 120, 150, 180 and […] and analyzed by Bio-Assay (Agar well method).

[7] = test system: Shigella flexneri ATCC 12022; assay: MIC, 2-fold dilution method in micro-well plate, S. flexneri; format: cell-based; conditions: S. flexneri ATCC12022, 37° C., read-out: Minimum Inhibitory Concentration
In short: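 Test compounds, converted to hydrochloride salts and dissolved in sterile water, were serially diluted two-fold in micro-well plates. Wells received bacteria grown overnight in brain-heart infusion broth at 37 °C, about (10^5–10^6)/2 cfu/ml final. Minimum inhibitory concentration determined following incubation at 37 °C.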

[8] = test system: Enterobacter aerogenes ATCC 13048; assay: MIC, 2-fold dilution method in micro-well plate, E. aerogenes; format: cell-based; conditions: Klebsiella aerogenes
In short: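 MIC read after growth at 37° C in micro-well plates, with E. aerogenes at roughly (10^5–10^6)/2 cfu/ml per well, grown overnight in brain-heart infusion broth. Compounds tested as hydrochlorides, serially diluted two-fold in water from a 10 mg/ml stock.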

[9] = test system: Klebsiella pneumoniae ATCC 13883; assay: MIC, 2-fold dilution method in micro-well plate, K. pneumoniae; format: cell-based
In short: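 MIC determined after 37 °C incubation of wells inoculated with overnight BHI-grown bacteria at about (10^5–10^6)/2 cfu/ml final. Compound tested as hydrochloride salt, dissolved in sterile water and diluted two-fold serially.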

[10] = test system: Citrobacter freundii ATCC 8090; assay: MIC, 2-fold dilution method in micro-well plate, C. freundii; format: cell-based
In short: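 MIC recorded after 37° C. culture of wells inoculated at roughly (10^5-10^6)/2 cfu/ml, bacteria pre-grown overnight in BHI broth. Compounds, converted to hydrochloride salts and dissolved in sterile distilled water, serially diluted two-fold in micro-well plates.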

[11] = test system: Pseudomonas aeruginosa ATCC 27853; assay: MIC, 2-fold dilution method in micro-well plate, P. aeruginosa; format: cell-based; conditions: P. aerugirnosa ATCC27853, 37° C., read-out: Minimum Inhibitory Concentration
In short: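 MIC was recorded after 37° C incubation of bacteria with serial two-fold dilutions of compound. Bacteria came from an overnight 37° C BHI culture; the final inoculum was about (10^5-10^6)/2 cfu/ml. Compounds were tested as hydrochloride salts diluted in sterile water from a 10 mg/ml stock.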

[12] = test system: Acinetobacter calcoaceticus; assay: MIC, 2-fold dilution method in micro-well plate, A. calcoaceticus; format: cell-based
[13] = test system: Salmonella typhimurium ATCC 14028; assay: MIC, 2-fold dilution method in micro-well plate, S. typhimurium; format: cell-based; conditions: Salmonella enterica, read-out: Minimum Inhibitory Concentration
In short: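 Hydrochloride salts dissolved in sterile water (10 mg/ml stock) and serially diluted twofold in microplate wells, then inoculated to roughly (10^5-10^6)/2 cfu/ml from overnight BHI culture. MIC recorded after 37 °C cultivation.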

[14] = test system: Escherichia coli ATCC 25922; assay: MIC, 2-fold dilution method in micro-well plate, E. coli; format: cell-based
In short: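 Broth two-fold microdilution of hydrochloride salts in water against E. coli ATCC 25922 grown overnight in BHI at 37° C. Final inoculum about (10^5 -10^6)/2 cfu/ml; after incubation at 37° C, MIC was recorded.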

[15] = test system: Streptococcus pyrogens ATCC 19615; assay: MIC, 2-fold dilution method in micro-well plate, S. pyrogens; format: cell-based; conditions: S. pyrogenes ATCC19615, 37° C., read-out: Minimum Inhibitory Concentration
In short: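 Inoculum from overnight 37° C brain-heart infusion culture gave roughly (10^5-10^6)/2 cfu/mL per well against two-fold serial dilutions of hydrochloride-salt compound in water. Lowest concentration inhibiting growth after 37° C incubation taken as MIC.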

[16] = test system: Haemophilus influenza ATCC 35056; assay: MIC, 2-fold dilution method in micro-well plate, H. influenzae; format: cell-based; conditions: H. influenzae ATCC35056, 37° C.; read-out: Minimum Inhibitory Concentration
In short: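 Hydrochloride salts dissolved in water (10 mg/ml stock) and serially diluted two-fold in micro-wells, each mixed with equal volume of overnight BHI-grown bacteria to about (10^5-10^6)/2 cfu/ml. Minimum inhibitory concentration recorded after incubation at 37° C.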

[17] = test system: Serratia marcescens ATCC 8100; assay: MIC, 2-fold dilution method in micro-well plate, S. marcescens; format: cell-based
In short: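 Bacteria grown overnight in BHI broth at 37 °C were added to wells of two-fold diluted compound (as HCl salt, aqueous) at about (10^5-10^6)/2 cfu/ml final. Lowest inhibitory concentration recorded after 37 °C incubation.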

[18] = P. vulgaris ATCC13315, 37° C., read-out: Minimum Inhibitory Concentration
[19] = ATCC13048, read-out: Minimum Inhibitory Concentration
[20] = K. pneumoniae ATCC13883, 37° C., read-out: Minimum Inhibitory Concentration
[21] = C. freundii ATCC8090, 37° C., read-out: Minimum Inhibitory Concentration
[22] = E. coli ATCC25922, 37° C., read-out: Minimum Inhibitory Concentration
[23] = ATCC8100, read-out: Minimum Inhibitory Concentration
[24] = ATCC8090, read-out: Minimum Inhibitory Concentration

| SMILES | MIC [1] [µg/mL] | MIC [2] [µg/mL] | MIC [3] [µg/mL] | MIC [4] [µg/mL] | MIC [5, 18] [µg/mL] | MIC (Enterobacter cloacae) [µg/mL] | AUC ([6]; po, P.O) [ng·h/mL] | Cmax ([6]; po, P.O) [ng/mL] | Tmax ([6]; po, P.O) [h] | AUC ([6]; sc, S.C) [ng·h/mL] | Cmax ([6]; sc, S.C) [ng/mL] | Tmax ([6]; sc, S.C) [h] | half-life ([6]; sc, S.C) [h] | dose excreted ([6]; po, P.O) [%] | dose excreted ([6]; sc, S.C) [%] | MIC [7] [µg/mL] | MIC [11] [µg/mL] | MIC [13] [µg/mL] | MIC [15] [µg/mL] | MIC [16] [µg/mL] | further results |
| --- | --- | --- | --- | --- | --- | --- | --- | --- | --- | --- | --- | --- | --- | --- | --- | --- | --- | --- | --- | --- | --- |
| CC1CN(c2cc3c(cc2F)c(=O)c(C(=O)O)cn3-c2ccc(F)cn2)CCN1.Cl (stereo not shown) [Example 19, 1-(5-fluoro-2-pyridyl)-6-fluoro-7-(3-methyl-1-piperazinyl)-1,4-dihydro-4-oxoquinoline-3-carboxylic acid hydrochloride] | 5 | 5 | 5 | 0.313 | 0.156 | 0.625 | 16900 | 3110 | 0.87 | 23300 | 5110 | 0.87 | 5.32 | 29 | 48.7 | 0.313 | 0.625 | 0.313 | 10 | 0.625 | bioavailability ([6]; po, P.O): 72.7%; half-life ([6]; po, P.O): 8.42 h; MIC [8, 19]: 0.625 µg/mL; MIC [9, 20]: 1.25 µg/mL; MIC [10, 21]: 1.25 µg/mL; MIC ([12]; A. calcoaceticus ATCC8090 (as in tables), 37° C., read-out: Minimum Inhibitory Concentration): 1.25 µg/mL; MIC [14, 22]: 0.078 µg/mL; MIC [17, 23]: 0.625 µg/mL |
| Cc1c(F)c(N2CCN(C)CC2)cc2c1c(=O)c(C(=O)O)cn2-c1ccc(F)cn1.Cl [Example 28, 5-methyl-7-(4-methyl-1-piperazinyl)-1-(5-fluoro-2-pyridyl)-6-fluoro-1,4-dihydro-4-oxoquinoline-3-carboxylic acid hydrochloride] | 10 | 10 | 5 | 1.25 |  | 0.625 | 62400 | 6360 | 0.87 | 76100 | 6940 | 1 | 7.26 | 25.2 | 13.4 | 0.625 | 1.25 | 1.25 | 10 | 0.313 | MIC ([5]; ATCC13315, read-out: Minimum Inhibitory Concentration): 0.625 µg/mL; bioavailability ([6]; po, P.O): 81.3%; half-life ([6]; po, P.O): 7.57 h; MIC [8, 19]: 0.625 µg/mL; MIC ([9]; ATCC13883, read-out: Minimum Inhibitory Concentration): 1.25 µg/mL; MIC [10, 21]: 2.5 µg/mL; MIC [12, 24]: 1.25 µg/mL; MIC ([14]; ATCC25922, read-out: Minimum Inhibitory Concentration): 1.25 µg/mL; MIC [17, 23]: 1.25 µg/mL |
| Cc1c(F)c(N2CCNC(C)C2)cc2c1c(=O)c(C(=O)O)cn2-c1ccc(F)cn1.Cl (stereo not shown) [Example 29, 5-methyl-7-(3-methyl-1-piperazinyl)-1-(5-fluoro-2-pyridyl)-6-fluoro-1,4-dihydro-4-oxoquinoline-3-carboxylic acid hydrochloride] | 5 | 10 | 5 | 0.625 | 1.25 |  |  |  |  | 32600 | 8340 | 1.25 | 2.31 | 9.35 | 12.8 | 0.625 | 1.25 | 0.625 | 10 | 0.625 | MIC (Enterobacter cloacae; E. cloacae ATCC23355 (as in tables), 37° C.): 0.313 µg/mL; MIC ([8]; E. aerogenes ATCC13048, 37° C., read-out: Minimum Inhibitory Concentration): 0.313 µg/mL; MIC [9, 20]: 1.25 µg/mL; MIC [10, 24]: 0.625 µg/mL; MIC [12, 24]: 0.625 µg/mL; MIC [14, 22]: 1.25 µg/mL; MIC ([17]; S. marcescens ATCC8100, 37° C., read-out: Minimum Inhibitory Concentration): 1.25 µg/mL |
